Results published in paper PMC7555825, “New Insights of the Zn(II)-Induced P2 × 4R Positive Allosteric Modulation: Role of Head Receptor Domain SS2/SS3, E160 and D170” (International Journal of Molecular Sciences, 2020).
Residue numbers refer to the chain shown, from its start.

Tests used:
Format in all cases: cell-based
[1] = target: T1, rP2 × 4R E160Q mutant (Rattus norvegicus, UniProt P51577, E160Q); experiment: ATP concentration–response curves, voltage clamp, E160Q mutant; settings: for EC50: ATP EC50, E160Q
T1 construct: host or cells: Xenopus laevis oocytes
T1 sequence (P51577 1-388 E160Q): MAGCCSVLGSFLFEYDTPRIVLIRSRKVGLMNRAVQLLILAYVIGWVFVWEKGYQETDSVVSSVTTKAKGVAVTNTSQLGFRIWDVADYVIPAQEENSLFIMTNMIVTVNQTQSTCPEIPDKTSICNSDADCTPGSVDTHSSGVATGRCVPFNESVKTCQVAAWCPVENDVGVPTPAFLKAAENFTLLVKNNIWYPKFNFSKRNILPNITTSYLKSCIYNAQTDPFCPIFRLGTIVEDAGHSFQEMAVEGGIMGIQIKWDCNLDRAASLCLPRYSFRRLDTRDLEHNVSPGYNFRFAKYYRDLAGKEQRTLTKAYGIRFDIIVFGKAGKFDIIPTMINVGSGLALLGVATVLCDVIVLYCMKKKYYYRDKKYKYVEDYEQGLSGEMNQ

[2] = target: T2, rP2 × 4R C132A/C159A mutant (Rattus norvegicus, UniProt P51577, C132A/C159A); experiment: ATP concentration–response curves, voltage clamp, C132A/C159A double mutant; settings: for EC50: ATP EC50, C132A/C159A
T2 construct: host or cells: Xenopus laevis oocytes
T2 sequence (P51577 1-388 C132A/C159A): T1 sequence (P51577 1-388 E160Q) with C132A, C159A, Q160E

[3] = target: T3, rP2 × 4R D170N mutant (Rattus norvegicus, UniProt P51577, D170N); experiment: ATP concentration–response curves, voltage clamp, D170N mutant; settings: for EC50: ATP EC50, D170N
T3 construct: host or cells: Xenopus laevis oocytes
T3 sequence (P51577 1-388 D170N): T1 sequence (P51577 1-388 E160Q) with Q160E, D170N

[4] = target: T4, rP2 × 4R C159T mutant (Rattus norvegicus, UniProt P51577, C159T); experiment: ATP concentration–response curves, voltage clamp, C159T mutant; settings: for EC50: ATP EC50, C159T
T4 construct: expressed in transfected cells; host or cells: Xenopus laevis oocytes
T4 sequence (P51577 1-388 C159T): T1 sequence (P51577 1-388 E160Q) with C159T, Q160E

[5] = target: T5, rP2 × 4R C149A mutant (Rattus norvegicus, UniProt P51577, C149A); experiment: ATP concentration–response curves, voltage clamp, C149A mutant; settings: for EC50: ATP EC50, C149A
T5 construct: host or cells: Xenopus laevis oocytes
T5 sequence (P51577 1-388 C149A): T1 sequence (P51577 1-388 E160Q) with C149A, Q160E

[6] = target: T6, rP2 × 4R C126A/C149A mutant (Rattus norvegicus, UniProt P51577, C126A/C149A); experiment: ATP concentration–response curves, voltage clamp, C126A/C149A double mutant; settings: for EC50: ATP EC50, C126A/C149A
T6 construct: host or cells: Xenopus laevis oocytes
T6 sequence (P51577 1-388 C126A/C149A): T1 sequence (P51577 1-388 E160Q) with C126A, C149A, Q160E

Structure (SMILES) | EC50 ([1]; +10 µM Zn(II)) | EC50 ([1]; control) | EC50 ([2]; +10 µM Zn(II)) | EC50 ([2]; control) | EC50 ([3]; +10 µM Zn(II)) | EC50 ([3]; control) | EC50 ([4]; +10 µM Zn(II)) | EC50 ([4]; control) | EC50 ([5]; +10 µM Zn(II)) | EC50 ([5]; control) | Imax ([5]; C149A, +10 µM Zn(II)) | EC50 ([6]; +10 µM Zn(II)) | EC50 ([6]; control) | Zn(II) modulation of the mutant ([1]; E160Q, 10 µM Zn(II)) | fold reduction in ATP EC50 by Zn(II) ([2]; C132A/C159A, 10 µM Zn(II)) | EC50 ratio in the metal presence ([3]; D170N, 10 µM Zn(II)) | fold ATP EC50 reduction by Zn(II) ([4]; C159T, 10 µM Zn(II)) | fold ATP EC50 decrease by Zn(II) ([5]; C149A, 10 µM Zn(II)) | fold decrease in ATP EC50 by Zn(II) ([6]; C126A/C149A, 10 µM Zn(II))
Nc1ncnc2c1ncn2[C@@H]1O[C@H](COP(=O)(O)OP(=O)(O)OP(=O)(O)O)[C@@H](O)[C@H]1O [ATP, adenosine triphosphate] | 25.9 ± 7.1 µM | 23.8 ± 10.1 µM | 4.5 ± 1.6 µM | 77.1 ± 24.1 µM | 12.8 ± 8.1 µM | 19.3 ± 10.5 µM | 7 ± 2 µM | 37.3 ± 8.8 µM | 22.5 ± 7.5 µM | 39 ± 16.7 µM | 10.7 ± 3.5 µA | 10.1 ± 4.1 µM | 22.9 ± 6.7 µM |  |  |  |  |  | 
[Cl-].[Cl-].[Zn+2] [Zn(II), zinc chloride (ZnCl2)] |  |  |  |  |  |  |  |  |  |  |  |  |  | resistant to Zn(II) modulation | 17.1 fold | 1.5 | 5.32 fold | 1.73 fold | 2.26 fold
